Test results reported in ChEMBL document CHEMBL1151072, “Benzoxepin and benzothiepin derivatives as potent, orally active inhibitors of 5-lipoxygenase” (Bioorg Med Chem Lett, 1994).

Legend:
Canis familiaris [1] = assay: Inhibitory activity against LTB4 production upon intravenous administration at a dose of 1.0 mg/Kg (0.08-6.0 hour) in dog ex vivo model; type: functional; conditions: Canis lupus familiaris
Canis familiaris [2] = assay: Inhibitory activity against LTB4 production upon oral administration at a dose of 1.0 mg/Kg (0.08-6.0 hour) in dog ex vivo model; type: functional; conditions: Canis lupus familiaris
Canis familiaris [3] = assay: Inhibitory activity against LTB4 production upon oral administration at a dose of 1.0 mg/Kg (1 hour) in dog ex vivo model; type: functional; conditions: Canis lupus familiaris
Canis familiaris [4] = assay: Duration of action on LTB4 production upon intravenous administration at a dose of 1.0 mg/Kg in dog ex vivo model; type: functional, Canis lupus familiaris
Canis familiaris [5] = assay: Inhibitory activity against LTB4 production upon intravenous administration at a dose of 1.0 mg/Kg (0.08 hours) in dog ex vivo model; type: functional; conditions: Canis lupus familiaris
Canis familiaris [6] = assay: Inhibitory activity against LTB4 production upon intravenous administration at a dose of 1.0 mg/Kg (0.08-1 hour) in dog ex vivo model; type: functional; conditions: Canis lupus familiaris
Canis familiaris [7] = assay: Duration of action on LTB4 production upon oral administration at a dose of 1.0 mg/Kg in dog ex vivo model; type: functional, Canis lupus familiaris
Canis familiaris [8] = assay: Inhibitory activity against LTB4 production upon oral administration at a dose of 1.0 mg/Kg (0.25-6.0 hour) in dog ex vivo model; type: functional; conditions: Canis lupus familiaris
Canis familiaris [9] = assay: Inhibitory activity against LTB4 production upon intravenous administration at a dose of 1.0 mg/Kg (0.25-0.5 hour) in dog ex vivo model; type: functional; conditions: Canis lupus familiaris
Canis familiaris [10] = assay: Inhibitory activity against LTB4 production upon oral administration at a dose of 1.0 mg/Kg (0.5 hours) in dog ex vivo model; type: functional; conditions: Canis lupus familiaris
Canis familiaris [11] = assay: Inhibitory activity against LTB4 production upon intravenous administration at a dose of 1.0 mg/Kg (3 hours) in dog ex vivo model; type: functional; conditions: Canis lupus familiaris
Canis familiaris [12] = assay: Inhibitory activity against LTB4 production upon intravenous administration at a dose of 1.0 mg/Kg (0.08-0.5 hour) in dog ex vivo model; type: functional; conditions: Canis lupus familiaris
Canis familiaris [13] = assay: Inhibitory activity against LTB4 production upon oral administration at a dose of 1.0 mg/Kg (0.5-1 hour) in dog ex vivo model; type: functional; conditions: Canis lupus familiaris

NC(=O)N(O)CC1=Cc2cc(Oc3ccccc3)ccc2OC1
inhibition in vivo at 1 mg/kg (Canis familiaris [1]): > 95% | inhibition in vivo at 1 mg/kg (Canis familiaris [2]): > 95%

NC(=O)N(O)CC1=Cc2ccc(Oc3ccccc3)cc2OCC1
inhibition in vivo at 1 mg/kg (Canis familiaris [3]): 28% | Duration of action (Canis familiaris [4]): 1.1 | inhibition in vivo at 1 mg/kg (Canis familiaris [5]): > 95%

NC(=O)N(O)CC1=Cc2cc(Oc3ccccc3)ccc2SCC1
inhibition in vivo at 1 mg/kg (Canis familiaris [6]): > 95% | Duration of action (Canis familiaris [4]): 2.8

CNC(=O)N(O)CC1=Cc2cc(Oc3ccc(F)cc3)ccc2OCC1
Duration of action (Canis familiaris [7]): 13 | inhibition in vivo at 1 mg/kg (Canis familiaris [8]): > 95% | inhibition in vivo at 1 mg/kg (Canis familiaris [6]): > 95% | Duration of action (Canis familiaris [4]): 13

NC(=O)N(O)CC1=Cc2cc(Oc3ccc(F)cc3)ccc2OCC1
inhibition in vivo at 1 mg/kg (Canis familiaris [9]): > 95% | Duration of action (Canis familiaris [7]): 10 | inhibition in vivo at 1 mg/kg (Canis familiaris [3]): > 95% | Duration of action (Canis familiaris [4]): >24

NC(=O)N(O)CC1=Cc2cc(Oc3ccccc3)ccc2OCC1
inhibition in vivo at 1 mg/kg (Canis familiaris [10]): 94% | Duration of action (Canis familiaris [7]): 9.1 | inhibition in vivo at 1 mg/kg (Canis familiaris [11]): 80% | Duration of action (Canis familiaris [4]): 19.4

CC(c1cc2ccccc2s1)N(O)C(N)=O (stereo unspecified) [ZILEUTON]
inhibition in vivo at 1 mg/kg (Canis familiaris [12]): > 90% | inhibition in vivo at 1 mg/kg (Canis familiaris [13]): > 90%
